Experimental data reported in patent publication US9617246B2, “Thioether-piperidinyl orexin receptor antagonists” (MERCK SHARP & DOHME CORP., priority 2013, dated 2017).

Tests used:
human orexin-2 receptor = human orexin-2 receptor (Homo sapiens (Human), UniProt O43614); test: FLIPR Ca2+ Flux Assay, orexin-2 receptor; type: cell-based; settings: CHO cells, agonist 70 pM Ala-6,12 human orexin-A; read-out: hOX2R FLIPR IC50
Description: The utility of the compounds in accordance with the present invention as orexin receptor OX1R and/or OX2R antagonists may be readily determined without undue experimentation by methodology well known in the art, including the “FLIPR Ca^2+ Flux Assay” (Okumura et al., Biochem. Biophys. Res. Comm. 280:976-981, 2001). In a typical experiment the OX1 and OX2 receptor antagonistic activity of the compounds of the present invention was determined in accordance with the following experimental method. For intracellular calcium measurements, Chinese hamster ovary (CHO) cells expressing the rat orexin-1 receptor or the human orexin-2 receptor, are grown in Iscove's modified DMEM containing 2 mM L-glutamine, […], 1% hypoxanthine-thymidine supplement, 100 U/ml penicillin, 100 μg/ml streptomycin and 10% heat-inactivated fetal calf serum (FCS). The cells are seeded at 20,000 cells/well into Becton-Dickinson black 384-well clear bottom sterile plates coated with poly-D-lysine. All reagents were from GIBCO-Invitrogen Corp. The seeded plates are incubated overnight at 37° C. and 5% CO2. Ala-6,12 human orexin-A as the agonist is prepared as a 1 mM stock solution in 1% bovine serum albumin (BSA) and diluted in assay buffer (HBSS containing 20 mM HEPES, 0.1% BSA and 2.5 mM probenecid, pH7.4) for use in the assay at a final concentration of 70 pM. Test compounds are prepared as 10 mM stock solution in DMSO, then diluted in 384-well plates, first in DMSO, then assay buffer. On the day of the assay, cells are washed 3 times with 100 μl assay buffer and then incubated for 60 min (37° C., 5% CO2) in 60 μl assay buffer containing 1 μM Fluo-4AM ester, 0.02% pluronic acid, and 1% BSA. The dye loading solution is then aspirated and cells are washed 3 times with 100 μl assay buffer. 30 μl of that same buffer is left in each well. Within the Fluorescent Imaging Plate Reader (FLIPR, Molecular Devices), test compounds are added to the plate in a volume of 25 μl, incubated for 5 min and finally 25 μl of agonist is added. Fluorescence is measured for each well at 1 second intervals for 5 minutes and the height of each fluorescence peak is compared to the height of the fluorescence peak induced by 70 pM Ala-6,12 orexin-A with buffer in place of antagonist. For each antagonist, IC50 value (the concentration of compound needed to inhibit 50% of the agonist response) is determined. Alternatively, compound potency can be assessed by a radioligand binding assay (described in Bergman et. al. Bioorg. Med. Chem. Lett. 2008, 18, 1425-1430) in which the inhibition constant (Ki) is determined in membranes prepared from CHO cells expressing either the OX1 or OX2 receptor. The intrinsic orexin receptor antagonist activity of a compound which may be used in the present invention may be determined by these assays.

hOX1R = hOX1R (Homo sapiens, UniProt O43613); test: FLIPR Ca2+ Flux Assay, orexin-1 receptor; type: cell-based; settings: CHO cells, agonist 70 pM Ala-6,12 human orexin-A

human orexin-2 receptor, sequence (O43614 whole entry): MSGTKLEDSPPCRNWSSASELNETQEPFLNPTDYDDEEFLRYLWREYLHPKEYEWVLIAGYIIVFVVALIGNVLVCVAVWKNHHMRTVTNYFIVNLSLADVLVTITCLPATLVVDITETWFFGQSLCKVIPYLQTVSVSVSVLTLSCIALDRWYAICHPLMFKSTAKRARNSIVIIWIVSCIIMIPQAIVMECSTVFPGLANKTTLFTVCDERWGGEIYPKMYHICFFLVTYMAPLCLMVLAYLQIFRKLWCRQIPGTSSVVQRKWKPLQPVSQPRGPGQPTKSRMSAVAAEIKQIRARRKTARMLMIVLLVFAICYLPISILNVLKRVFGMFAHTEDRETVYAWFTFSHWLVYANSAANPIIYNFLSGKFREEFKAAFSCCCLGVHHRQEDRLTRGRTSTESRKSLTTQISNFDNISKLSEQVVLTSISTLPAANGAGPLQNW

SMILES	IC50 (human orexin-2 receptor)	IC50 (hOX1R)
COc1cccc(-n2nccn2)c1C(=O)N1C[C@H](Sc2cc(C#N)ccn2)CC[C@H]1C [Example 17, 2-{[(3R,6R)-1-{[2-methoxy-6-(2H-1,2,3-triazol-2-yl)phenyl]carbonyl}-6-methylpiperidin-3-yl]sulfanyl}pyridine-4-carbonitrile]	51.2 nM	5880 nM
Cc1cccc(C(=O)N2C[C@H](Sc3cc(C#N)ccn3)CC[C@H]2C)c1-n1nccn1 [Example 18, 2-{[(3R,6R)-6-methyl-1-{[3-methyl-2-(2H-1,2,3-triazol-2-yl)phenyl]carbonyl}piperidin-3-yl]sulfanyl}pyridine-4-carbonitrile]	14.4 nM	803 nM
C[C@@H]1CC[C@@H](Sc2cc(C#N)ccn2)CN1C(=O)c1cccc(F)c1-n1nccn1 [Example 19, 2-{[(3R,6R)-1-{[3-fluoro-2-(2H-1,2,3-triazol-2-yl)phenyl]carbonyl}-6-methylpiperidin-3-yl]sulfanyl}pyridine-4-carbonitrile]	20.8 nM	2550 nM
C[C@@H]1CC[C@@H](Sc2cc(C#N)ccn2)CN1C(=O)c1ccc(Cl)cc1-n1nccn1 [Example 20, 2-{[(3R,6R)-1-{[4-chloro-2-(2H-1,2,3-triazol-2-yl)phenyl]carbonyl}-6-methylpiperidin-3-yl]sulfanyl}pyridine-4-carbonitrile]	15.5 nM	1030 nM
C[C@@H]1CC[C@@H](Sc2cc(C#N)ccn2)CN1C(=O)c1ccc(F)cc1-n1nccn1 [Example 21, 2-{[(3R,6R)-1-{[4-fluoro-2-(2H-1,2,3-triazol-2-yl)phenyl]carbonyl}-6-methylpiperidin-3-yl]sulfanyl}pyridine-4-carbonitrile]	26.1 nM	2720 nM
Cc1ccc(C(=O)N2C[C@H](Sc3cc(C#N)ccn3)CC[C@H]2C)c(-n2nccn2)c1 [Example 22, 2-{[(3R,6R)-6-methyl-1-{[4-methyl-2-(2H-1,2,3-triazol-2-yl)phenyl]carbonyl}piperidin-3-yl]sulfanyl}pyridine-4-carbonitrile]	49 nM	1500 nM
COc1ccc(C(=O)N2C[C@H](Sc3cc(C#N)ccn3)CC[C@H]2C)c(-n2nccn2)c1 [Example 23, 2-{[(3R,6R)-1-{[4-methoxy-2-(2H-1,2,3-triazol-2-yl)phenyl]carbonyl}-6-methylpiperidin-3-yl]sulfanyl}pyridine-4-carbonitrile]	224 nM	7820 nM
C[C@@H]1CC[C@@H](Sc2cc(C#N)ccn2)CN1C(=O)c1cc(Br)ccc1-n1nccn1 [Example 24, 2-{[(3R,6R)-1-{[5-bromo-2-(2H-1,2,3-triazol-2-yl)phenyl]carbonyl}-6-methylpiperidin-3-yl]sulfanyl}pyridine-4-carbonitrile]	14.9 nM	489 nM
C[C@@H]1CC[C@@H](Sc2cc(C#N)ccn2)CN1C(=O)c1cc(Cl)ccc1-n1nccn1 [Example 25, 2-{[(3R,6R)-1-{[5-chloro-2-(2H-1,2,3-triazol-2-yl)phenyl]carbonyl}-6-methylpiperidin-3-yl]sulfanyl}pyridine-4-carbonitrile]	214 nM	4860 nM
C[C@@H]1CC[C@@H](Sc2cc(C#N)ccn2)CN1C(=O)c1ccccc1-c1ccccc1 [Example 28, 2-{[(3R,6R)-1-(biphenyl-2-ylcarbonyl)-6-methylpiperidin-3-yl]sulfanyl}pyridine-4-carbonitrile]	16.7 nM	279 nM
C[C@@H]1CC[C@@H](Sc2cc(C#N)ccn2)CN1C(=O)c1ccccc1Oc1ccccc1 [Example 29, 2-({(3R,6R)-6-methyl-1-[(2-phenoxyphenyl)carbonyl]piperidin-3-yl}sulfanyl)pyridine-4-carbonitrile]	62.7 nM	10000 nM
C[C@@H]1CC[C@@H](Sc2cc(C#N)ccn2)CN1C(=O)c1ccccc1C1CC1 [Example 30, 2-({(3R,6R)-1-[(2-cyclopropylphenyl)carbonyl]-6-methylpiperidin-3-yl}sulfanyl)pyridine-4-carbonitrile]	18.3 nM	4070 nM
